IC50 data for 48 molecules are collected here from patent US20130029967A1, “Fused Imidazo [3,2 - D] Pyrazines as P13 Kinase Inhibitors” (Centro Nacional de Investigaciones Oncologicas (CNIO), priority 2009, published 2013).

Read-outs that look alike come from different tables or passages of the source.

The subject of one assay is phospho-Ser-473-Akt. Description: AKT phosphorylation inhibition, Western blot analysis. The assay is classed as cell-based. The note with it: cellular p-AKT. The protocol: (§1) Cell culture: The cell lines were obtained from the American Type Culture Collection (ATCC). U2OS (human osteosarcoma) was cultured in Dulbecco's modified Eagle's medium (DMEM). PC3 (human prostate carcinoma), MCF7 (human breast cardinoma), HCT116 (human colon carcinoma), […], U251 (human glyoblastoma) were grown in RPMI. All media were supplemented with 10% fetal bovine serum (FBS) (Sigma) and antibiotics-antimycotics. Cell were maintained in a humidified incubator at 37° C. with 5% CO2 and passaged when confluent using trypsin/EDTA.
AKT phosphorylation Inhibition Western Blot Analysis: Subconfluent cells were incubated under different conditions and washed twice with TBS prior to lysis. Lysis buffer was added containing 50 mM Tris HCl, 150 mM NaCl, 1% NP-40, 2 mM Na3VO4, 100 mM NaF, 20 mM Na4P2O7 and protease inhibitor cocktail (Roche Molecular Biochemicals). The proteins were resolved on 10% SDS-PAGE and transferred to nitrocellulose membrane (Schleicher & Schuell, Dassel, Germany). The membranes were incubated overnight at 4° C. with antibodies specific for Akt, phospho-Ser-473-Akt (Cell Signaling Technology) and α-tubulin (Sigma), they were washed and then incubated with IRDye800 conjugated anti-mouse and Alexa Fluor 680 goat anti-rabbit IgG secondary antibodies. The bands were visualized using an Odyssey infrared imaging system (Li-Cor Biosciences).
(In general: A western blot detects proteins with antibodies after separation by electrophoresis.)

A further assay has as its target T1, PI3K (p110α/p85α) (Homo sapiens, UniProt P42336).
T1 construct: purchased Carna Biosciences 07CBS-0402A
The assay is described as follows: PI3K activity assay (ADP Hunter Plus). The note with it: quantitative results, read-out: PI3K α IC50. It is filed as biochemical. The protocol: The kinase activity was measured by using the commercial ADP Hunter™ Plus assay available from DiscoveRx (#33-016), which is a homogeneous assay to measure the accumulation of ADP, a universal product of kinase activity. […] Reaction was carried out for 1 hour at 25° C. Reagent A and B were sequentially added to the wells and plates were incubated for 30 min at 37° C. […] Values were normalized against the control activity included for each enzyme (i.e., 100% PI3 kinase activity, without compound). These values were plot against the inhibitor concentration and were fit to a sigmoid dose-response curve by using the Graphed software.

Assay [1] deals with phospho-AKT (Ser473) in Osteosarcoma U2OS cells. The assay is described as follows: PI3K cellular activity, ELISA (phospho-AKT Ser473). It is filed as cell-based. Particulars: Homo sapiens, cellular p-AKT. The protocol:
as §1
Activity was measured as endogenous levels of phospho-AKT (Ser473) protein. Osteosarcoma U2OS cells were plated in 96 Poly-D-Lysine coating tissue culture plates (18.000 cells/well). After the treatment with serial dilutions of the compound during 3 h, the cells were fixed directly in the wells with 4% paraformaldehide. After fixing, individual wells went through the same series of steps used for a conventional immunoblot: including blocking with 5% BSA, incubation with 1/1000 of primary antibody-AKT ([…]) in PBS containing 5% BSA at 4° C. overnight (Cell Signalling), washing and incubation with second antibody HRP-anti-mouse IgG for 1 h at RT (Amersham). After the addition of SuperSignal ELISA Femto maximum sensitivity chemiluminescent substrate (Pierce) the results were read in a luminescence plate reader (Victor).

T1 sequence (P42336 whole entry): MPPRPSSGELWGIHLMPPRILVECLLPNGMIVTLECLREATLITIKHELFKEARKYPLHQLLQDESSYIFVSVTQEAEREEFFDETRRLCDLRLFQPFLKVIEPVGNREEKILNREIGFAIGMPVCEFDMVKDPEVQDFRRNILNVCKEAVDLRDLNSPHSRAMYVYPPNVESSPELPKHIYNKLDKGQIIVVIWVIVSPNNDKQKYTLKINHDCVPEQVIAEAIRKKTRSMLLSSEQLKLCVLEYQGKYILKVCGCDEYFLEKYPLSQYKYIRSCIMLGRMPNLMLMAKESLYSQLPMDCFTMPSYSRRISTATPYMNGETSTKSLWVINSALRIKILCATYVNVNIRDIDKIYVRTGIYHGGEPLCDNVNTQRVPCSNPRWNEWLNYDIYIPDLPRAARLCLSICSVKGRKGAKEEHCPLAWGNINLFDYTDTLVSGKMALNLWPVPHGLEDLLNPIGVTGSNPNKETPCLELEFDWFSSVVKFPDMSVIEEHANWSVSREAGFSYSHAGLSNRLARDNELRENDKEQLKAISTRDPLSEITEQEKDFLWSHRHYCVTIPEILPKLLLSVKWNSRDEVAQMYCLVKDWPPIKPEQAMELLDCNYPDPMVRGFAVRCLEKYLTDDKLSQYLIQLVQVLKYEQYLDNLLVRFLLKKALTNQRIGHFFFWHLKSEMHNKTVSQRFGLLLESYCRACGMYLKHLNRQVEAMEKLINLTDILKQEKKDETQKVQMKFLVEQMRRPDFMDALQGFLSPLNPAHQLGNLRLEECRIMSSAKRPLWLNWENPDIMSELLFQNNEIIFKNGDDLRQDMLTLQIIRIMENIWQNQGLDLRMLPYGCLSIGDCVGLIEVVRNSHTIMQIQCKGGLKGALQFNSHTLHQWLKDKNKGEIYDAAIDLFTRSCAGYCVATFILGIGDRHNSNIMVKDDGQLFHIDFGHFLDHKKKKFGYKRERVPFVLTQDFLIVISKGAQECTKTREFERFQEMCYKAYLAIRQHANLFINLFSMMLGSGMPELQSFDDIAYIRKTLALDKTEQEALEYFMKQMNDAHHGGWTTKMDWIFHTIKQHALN
T1 sequence (P27986 whole entry partner): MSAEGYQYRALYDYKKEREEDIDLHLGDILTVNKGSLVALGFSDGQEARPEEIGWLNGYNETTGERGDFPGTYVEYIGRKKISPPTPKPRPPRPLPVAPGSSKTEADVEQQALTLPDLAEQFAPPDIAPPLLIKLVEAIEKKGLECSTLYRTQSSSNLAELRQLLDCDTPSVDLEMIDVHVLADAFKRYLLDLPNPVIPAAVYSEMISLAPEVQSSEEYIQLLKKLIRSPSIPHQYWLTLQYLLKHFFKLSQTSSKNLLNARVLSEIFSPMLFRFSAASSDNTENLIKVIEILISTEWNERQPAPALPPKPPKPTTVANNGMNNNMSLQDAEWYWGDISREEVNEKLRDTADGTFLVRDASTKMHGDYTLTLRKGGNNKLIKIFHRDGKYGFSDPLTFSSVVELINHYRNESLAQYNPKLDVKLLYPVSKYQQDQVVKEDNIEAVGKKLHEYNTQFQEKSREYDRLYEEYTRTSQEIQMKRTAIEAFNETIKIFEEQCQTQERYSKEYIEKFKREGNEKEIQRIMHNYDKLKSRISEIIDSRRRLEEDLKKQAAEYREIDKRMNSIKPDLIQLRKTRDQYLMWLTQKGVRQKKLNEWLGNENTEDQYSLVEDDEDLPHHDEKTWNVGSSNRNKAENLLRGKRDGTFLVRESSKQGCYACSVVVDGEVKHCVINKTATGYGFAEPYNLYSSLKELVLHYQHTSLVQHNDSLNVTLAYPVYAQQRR

As to `c1cc(-c2cn3c4c(nc3c(N3CCOCC3)n2)CCNC4)c2cn[nH]c2c1` [2-04], the IC50 (as a rule, the concentration that inhibits the measured activity by half) in the assay on phospho-Ser-473-Akt came out at 56 nM; at PI3K (p110α/p85α) (PI3Kα), 755 nM.

`Nc1ncc(-c2cn3c4c(nc3c(N3CCOCC3)n2)CCN(Cc2ccccn2)C4)cn1` [2-18]: the IC50 with phospho-Ser-473-Akt amounted to 245 nM; at PI3K (p110α/p85α) (PI3Kα), 69 nM. The matching figures for `CCOC(=O)N1CCc2nc3c(N4CCOCC4)nc(-c4cnc(N)nc4)c(Cl)n3c2C1` [2-32]: 78 nM and 84 nM. As to `CCNC(=O)N1CCc2nc3c(N4CCOCC4)nc(-c4cnc(N)nc4)cn3c2C1` [2-38], the half-maximal inhibitory concentration (IC50) in assay [1] came to 1230 nM.

`CS(=O)(=O)N1CCc2nc3c(N4CCOCC4)nc(-c4cnc(N)nc4)c(Cl)n3c2C1` [2-49]: the half-inhibitory concentration (IC50) was 9 nM at PI3K (p110α/p85α) (PI3Kα) and 95 nM in assay [1]. For the molecule `CCCNC(=O)N1CCc2nc3c(N4CCOCC4)nc(-c4cnc(N)nc4)cn3c2C1` [2-53], the concentration for half-maximal inhibition (IC50) was found to be 62 nM on PI3K (p110α/p85α) (PI3Kα) and 564 nM in assay [1]. Regarding `CC(C)S(=O)(=O)N1CCc2nc3c(N4CCOCC4)nc(-c4cnc(N)nc4)cn3c2C1` [2-59], the IC50 at PI3K (p110α/p85α) (PI3Kα) worked out at 77 nM; in assay [1] it was 853 nM. The matching figures for `Nc1ncc(-c2cn3c4c(nc3c(N3CCOCC3)n2)CCN(C(=O)NC2CCCC2)C4)cn1` [2-66]: 57 nM and 546 nM. The matching figures for `Nc1ncc(-c2cn3c4c(nc3c(N3CCOCC3)n2)CCN(S(=O)(=O)C2CCCC2)C4)cn1` [2-69]: 23 nM and 450 nM. In the same order, the values of `COc1ccccc1NC(=O)N1CCc2nc3c(N4CCOCC4)nc(-c4cnc(N)nc4)cn3c2C1` [2-72] are 47 nM and 473 nM. With `CCS(=O)(=O)N1CCc2nc3c(N4CCOCC4)nc(-c4cnc(N)nc4)cn3c2C1` [2-73], the IC50 at PI3K (p110α/p85α) (PI3Kα) was determined as 29 nM; in assay [1], 236 nM. The matching figures for `CN(C)c1ccc(NC(=O)N2CCc3nc4c(N5CCOCC5)nc(-c5cnc(N)nc5)cn4c3C2)cc1` [2-74]: 74 nM and 888 nM. The matching figures for `Nc1ncc(-c2cn3c4c(nc3c(N3CCOCC3)n2)CCN(C(=O)NCc2cccc(F)c2)C4)cn1` [2-83]: 25 nM and 497 nM. The matching figures for `COCCS(=O)(=O)N1CCc2nc3c(N4CCOCC4)nc(-c4cnc(N)nc4)cn3c2C1` [2-85]: 54 nM and 344 nM.

As for `Nc1ncc(-c2cn3c4c(nc3c(N3CCOCC3)n2)CCN(C(=O)NCc2ccccc2F)C4)cn1` [2-90], the IC50 at PI3K (p110α/p85α) (PI3Kα) stood at 46 nM; in assay [1], 302 nM. The matching figures for `Nc1ncc(-c2cn3c4c(nc3c(N3CCOCC3)n2)CCN(C(=O)Nc2cccc(F)c2)C4)cn1` [2-91]: 75 nM and 443 nM. In the case of `COc1cccc(NC(=O)N2CCc3nc4c(N5CCOCC5)nc(-c5cnc(N)nc5)cn4c3C2)c1` [2-93], the values for the IC50 (on PI3K (p110α/p85α) (PI3Kα); in assay [1]) were 64 nM and 415 nM, respectively. In the same order, the values of `Cc1ccc(CNC(=O)N2CCc3nc4c(N5CCOCC5)nc(-c5cnc(N)nc5)cn4c3C2)cc1` [2-94] are 37 nM and 260 nM. In the same order, the values of `COc1ccc(CNC(=O)N2CCc3nc4c(N5CCOCC5)nc(-c5cnc(N)nc5)cn4c3C2)cc1` [2-96] are 28 nM and 385 nM.

Consider `COc1cccc(CNC(=O)N2CCc3nc4c(N5CCOCC5)nc(-c5cnc(N)nc5)cn4c3C2)c1` [2-97], for which the IC50 was 38 nM on PI3K (p110α/p85α) (PI3Kα) and 491 nM in assay [1].

In the case of `COc1ccc(NC(=O)N2CCc3nc4c(N5CCOCC5)nc(-c5cnc(N)nc5)cn4c3C2)cc1` [2-102], the values for the IC50 (at PI3K (p110α/p85α) (PI3Kα); in assay [1]) were 70 nM and 541 nM, respectively. With `Cc1ccc(NC(=O)N2CCc3nc4c(N5CCOCC5)nc(-c5cnc(N)nc5)cn4c3C2)cc1` [2-105], the IC50 is 44 nM at PI3K (p110α/p85α) (PI3Kα) and 345 nM in assay [1]. For the molecule `CC(C)CS(=O)(=O)N1CCc2nc3c(N4CCOCC4)nc(-c4cnc(N)nc4)cn3c2C1` [2-109], the IC50 at PI3K (p110α/p85α) (PI3Kα) amounted to 95 nM; in assay [1], 763 nM. As for `CS(=O)(=O)c1ccccc1CN1CCc2nc3c(N4CCOCC4)nc(-c4cnc(N)nc4)cn3c2C1` [2-117], the IC50 at PI3K (p110α/p85α) is 37 nM.

Consider `CC1(C)Cc2nc3c(N4CCOCC4)nc(-c4cnc(N)nc4)cn3c2C(O)C1` (stereo not drawn) [5-05], for which the IC50 on PI3K (p110α/p85α) amounted to 661 nM. Take `COc1ccc(CN2CCc3c(nc4c(N5CCOCC5)nc(-c5cnc(N)nc5)cn34)C2=O)cc1` [5-06]: the IC50 was 174 nM in the assay on phospho-Ser-473-Akt and 45 nM at PI3K (p110α/p85α). For `O=C1CCc2nc3c(N4CCOCC4)nc(-c4cccc(O)c4)cn3c2N1` [5-10], the IC50 on PI3K (p110α/p85α) was 409 nM. With `Nc1ncc(-c2cn3c4c(nc3c(N3CCOCC3)n2)CCC(=O)N4)cn1` [5-11], the IC50 at PI3K (p110α/p85α) is 14 nM; in assay [1], 475 nM. With `CN1CCc2c(nc3c(N4CCOCC4)nc(-c4cnc(N)nc4)cn23)C1` [6-02], the values for the IC50 in the assay on phospho-Ser-473-Akt and on PI3K (p110α/p85α) were 318 nM and 88 nM, respectively. The matching figures for `COCCN1CCc2c(nc3c(N4CCOCC4)nc(-c4cnc(N)nc4)cn23)C1` [6-03]: 532 nM and 50 nM. As to `CN(C)CCN1CCc2c(nc3c(N4CCOCC4)nc(-c4cnc(N)nc4)cn23)C1` [6-04], the IC50 at PI3K (p110α/p85α) came out at 178 nM. As to `COCCN1CCc2c(nc3c(N4CCOCC4)nc(-c4cnc(N)nc4)c(Cl)n23)C1` [6-09], the half-inhibitory concentration (IC50) was 180 nM in the assay on phospho-Ser-473-Akt and 121 nM at PI3K (p110α/p85α). On to `Nc1ncc(-c2nc(N3CCOCC3)c3nc4c(n3c2Cl)CCN(Cc2ccc(F)cc2)C4)cn1` [6-12], for which the 50% inhibitory concentration (IC50) on PI3K (p110α/p85α) was 290 nM. As for `Nc1ncc(-c2cn3c4c(nc3c(N3CCOCC3)n2)CN(C(=O)C(F)(F)F)CC4)cn1` [6-14], at PI3K (p110α/p85α), the IC50 turned out to be 23 nM.

On to `CS(=O)(=O)N1CCc2c(nc3c(N4CCOCC4)nc(-c4cnc(N)nc4)c(Cl)n23)C1` [6-17], for which the IC50 worked out at 33 nM at PI3K (p110α/p85α) and 246 nM in assay [1].

`CCS(=O)(=O)N1CCc2c(nc3c(N4CCOCC4)nc(-c4cnc(N)nc4)cn23)C1` [6-20]: the IC50 on PI3K (p110α/p85α) is 22 nM.

As for `CC(C)NC(=O)N1CCc2c(nc3c(N4CCOCC4)nc(-c4cnc(N)nc4)cn23)C1` [6-22], the IC50 at PI3K (p110α/p85α) came out at 100 nM. On to `Nc1ncc(-c2cn3c4c(nc3c(N3CCOCC3)n2)CN(C(=O)C2CC2)CC4)cn1` [6-24], for which the IC50 on PI3K (p110α/p85α) is 29 nM; in assay [1], 218 nM. The matching figures for `CC(C)C(=O)N1CCc2c(nc3c(N4CCOCC4)nc(-c4cnc(N)nc4)cn23)C1` [6-26]: 44 nM and 137 nM. On to `Nc1ncc(-c2cn3c4c(nc3c(N3CCOCC3)n2)CN(S(=O)(=O)C2CCOCC2)CC4)cn1` [6-28], for which the IC50 at PI3K (p110α/p85α) worked out at 18 nM. The same measure, in the same setting: then `N#CCCCS(=O)(=O)N1CCc2c(nc3c(N4CCOCC4)nc(-c4cnc(N)nc4)cn23)C1` [6-29], with 31 nM.

With `COc1ccccc1NC(=O)N1CCc2c(nc3c(N4CCOCC4)nc(-c4cnc(N)nc4)cn23)C1` [6-33], the IC50 at PI3K (p110α/p85α) is 25 nM; in assay [1] it was 188 nM. As for `COCCC(=O)N1CCc2c(nc3c(N4CCOCC4)nc(-c4cnc(N)nc4)cn23)C1` [6-35], the IC50 on PI3K (p110α/p85α) is 79 nM. As to `Nc1ncc(-c2cn3c4c(nc3c(N3CCOCC3)n2)CN(C(=O)Nc2ccccc2F)CC4)cn1` [6-36], the IC50 on PI3K (p110α/p85α) turned out to be 21 nM; in assay [1] it was 250 nM. Turning to `CN(C)c1ccc(NC(=O)N2CCc3c(nc4c(N5CCOCC5)nc(-c5cnc(N)nc5)cn34)C2)cc1` [6-39], the IC50 was 17 nM on PI3K (p110α/p85α) and 187 nM in assay [1].

With `Nc1ncc(-c2cn3c4c(nc3c(N3CCOCC3)n2)CN(C(=O)NCc2ccccc2F)CC4)cn1` [6-44], the half-inhibitory concentration (IC50) on PI3K (p110α/p85α) is 7 nM; in assay [1], 139 nM. In the same order, the values of `Nc1ncc(-c2cn3c4c(nc3c(N3CCOCC3)n2)CN(C(=O)Nc2cccc(F)c2)CC4)cn1` [6-45] are 14 nM and 101 nM.

As for `COc1ccccc1CNC(=O)N1CCc2c(nc3c(N4CCOCC4)nc(-c4cnc(N)nc4)cn23)C1` [6-46], the results for the IC50 (at PI3K (p110α/p85α); in assay [1]) were 7 nM and 112 nM, respectively.
